Results on 6 substances are retold here after PMC6996304, “Tumor gene therapy by systemic delivery of plasmid DNA with cell‐penetrating peptides” (FASEB bioAdvances, 2018).

Data set [1] has as its system BALB/c mice bearing subcutaneous Neuro2a tumors. Nature of the data set: Reporter gene delivery in vivo (CPP/pLuc2, luciferase in tissues). Set-up: species or system mouse. The following applies: for tumor specificity of reporter gene induction (luciferase levels in tissues): one iv dose of CPP/pLuc2 at CR4, plasmid 0.8 mg/kg, PEGylation rate 50%, tissues 24 h after injection. As for the experimental part: (§1) For in vivo studies, the plasmid dose was 0.8 mg/kg per animal; the pDNA was mixed with the CPP at CR 4 in MQ water, keeping the final complex volume at 100 μL. After 40‐minute incubation, 100 μL of 10% glucose was added to the complexes and injected immediately via tail vein. The luciferase encoding plasmid used in reporter gene experiments in vivo was p‐CMV‐Luc2, marked as pLuc2 in the text, which is optimized for in vivo use.
(§2) If not stated otherwise, the PEGylation rate of peptides in the CPP/pDNA complexes was 50% in all in vivo experiments.
(§3) Mouse Neuro2a and HT1080 tumor xenografts were induced by resuspending 1 × 10^6 cells in 100 μL volume of ice‐cold un‐supplemented DMEM and implanting the cell suspension subcutaneously to the right flank of the mouse (Neuro2a: 4‐ to 6‐week‐old BALB/c; HT1080: Hsd:Athymic Nude‐Foxn1nu female, 4‐6 weeks old, Harlan, UK). The 4T1 orthotopic tumors were induced by injecting 5 × 10^4 cells in 50 μL of ice‐cold un‐supplemented RPMI into the fourth mammary fat pad of 4‐ to 8‐week‐old female BALB/c mice.
Twenty‐four hours after the intravenous administration of CPP/pLuc2 complexes, the mice bearing Neuro2a tumors were sacrificed by cervical dislocation and tissues were harvested and snap‐frozen on dry ice. The tissues were homogenized using Precellys®24‐Dual homogenization system (Bertin Technologies, France) and lyzed with 1 × Promega lysis buffer (Promega). Luminescence was analyzed as described in in vitro transfection methods section.
(In general: In a reporter assay the amount or activity of a reporter protein is the signal.)

Data set [2] has as its system Neuro2a cells. Nature of the data set: In vitro transfection of CPP/pGL3 complexes, luciferase activity, with and without MMP-2 treatment. As to conditions: CPP/pGL3 complexes CR3 incubated with MMP-2 (3.8 ng/μL) 37 °C 40 min before transfection, 24 h, Figure 1B. Format: cell-based, mouse. As for the experimental part: CPP/pDNA nanoparticles for cell culture assays were prepared by mixing plasmid DNA (0.5 μg per well of a 24‐well plate) with CPPs, at CPP/pDNA charge ratio 3 (CR3) in MQ water with final volume of 105 μL, followed by a 40‐minute incubation at room temperature. pGL3 Control (Promega, Stockholm, Sweden) was used as the luciferase encoding plasmid since it is best suitable for in vitro use.
Twenty‐four hours before the experiment 3 × 10^4 Neuro2a cells were seeded onto 24‐well plates. Peptide/pDNA complexes at CR3 were prepared as described above. The transfection mixture was added to cells containing full media, and it made up 1/10 of the total cell medium volume during the time of transfection. Lipofectamine™ 2000 (Invitrogen, Carlsbad, CA) was used according to the manufacturer's protocol and added to the cells in serum‐containing medium. After 4‐hour incubation with the complexes, an additional 1 mL of fresh medium was added to the cells and incubated for an additional 20 hours. Thereafter, the media was removed, cells were lyzed with 100 μL 0.1% Triton X‐100 in PBS for 15 minutes at 4°C. Luciferase activity was measured using Promega's luciferase assay (Luciferase Assay System, Promega) according to the manufacturer's protocol on GLOMAX™ 96 microplate luminometer (Promega) and normalized to protein content, which was measured with the BioRad Protein Assay (Hercules, CA) according to the manufacturer's protocol.
To study the effect of MMP‐2 cleavage on transfection efficiency, active recombinant MMP‐2 enzyme (0.1 mg/mL, Calbiochem, Germany) was added to the CPP/pDNA complexes in MQ (final MMP‐2 concentration 3.8 ng/μL), and incubated at 37°C for 40 minutes prior transfection.

The subject of data set [3] is Neuro2a cells. The following applies: CPP/pLuc2 CR3, 0.1 μg pDNA, 4 h at 37 °C in 50% FBS (MQ for controls), then transfection of Neuro2a cells, luciferase read-out; Figure 2A. The protocol:
The stability of the CPP/pDNA nanoparticles to degradation and dissociation by components found in serum was assessed by reporter gene expression in cells after 4 hours incubation of CPP/pLuc2 complexes with 50% FBS. Complexes were formed as described previously, with 0.1 μg pDNA (CR 3), and incubated at room temperature for 40 minutes. After this, FBS (or MQ for controls) was added to the complexes, and the mixture incubated at 37°C for 4 hours (final FBS concentration 50%). For transfection, 1 × 10^4 Neuro2a cells were seeded to transparent 96‐well plates in supplemented DMEM media 24 hours before experiment. On the day of the experiment, the cells were transfected and luciferase expression analyzed as described in previous section (In vitro transfection).

The next data set relates to tumors. The following applies: systemic reporter gene plasmid delivery; cited from earlier work. The source says:
In a previous paper MMP‐activatable CPPs PepFect144 (PF144), PepFect145 (PF145), and PepFect146 (PF146) were designed, where the cell penetration ability of the CPPs was reversibly masked by attaching a PEG molecule to the C‐terminus of the peptides via an MMP‐2/‐9 cleavable linker. […] Although plasmid DNA has been successfully used in combination with small molecule therapeutics,31, 32 achieving a clinical effect by plasmid delivery ...

A short description of data set [4]: Heparin displacement assay (PicoGreen). Format: physicochemical. As to conditions: CPP/pLuc2 CR3, 0.1 μg pDNA per well, MQ water, heparin 30 min 37 °C, 100% = naked pDNA, Figure 2B. As for the experimental part: Accessibility of pDNA in complexes formed between pDNA and CPPs was assessed by Quant‐iT™ PicoGreen® (Thermo Fisher Scientific) assay in mQ water. CPP/pLuc2 nanoparticles at CR3 were prepared as described previously, and transferred to black 96 well plates (0.1 μg of pDNA per well). Heparin solution was added into the wells and incubated at 37°C for 30 minutes. For detection, PicoGreen® was added to the wells, and incubated for 20 minutes. Fluorescence was measured by fluorimeter (λex = 492 nm, λem = 535 nm) (SynergyMx, BioTek).

For another data set, the system named is sc HT1080 tumors. Nature of the data set: Tumor growth reduction study, HT1080 fibrosarcoma model. Format: in vivo, mouse. As to conditions: nude athymic mice, sc HT1080, CPP/pshVEGF CR4, 0.8 mg/kg every other day, three doses (two iv, third ip), n = 10, compared to pshVEGF alone; Figure 3A. As for the experimental part: as §1, §2, §3
(§4) Before treatment, the mice were assigned into six groups of 10. CPP/pshVEGF treatment for HT1080 tumor‐bearing animals was started at the first appearance of tumor growth (tumor size of approximately 100 mm^3). […] The tumor sizes were measured with calipers three times a week. […]

The next data set concerns orthotopic 4T1 tumors. Description: Tumor growth reduction study, orthotopic 4T1 breast tumor model. The following applies: BALB/c mice, orthotopic 4T1, treatment from 1 day after implantation, CPP/pshVEGF CR4, 0.8 mg/kg every other day, three doses, n = 10; Figure 3B. The data set is classed as in vivo, mouse. The protocol:
as §1, §2, §3, §4

Data set [5] concerns the target active human recombinant MMP-2 enzyme (Homo sapiens, UniProt P08253).
Protocol: Cleavage assay of MMP-2 cleavable CPPs that contain iRGD. The peptides were incubated with
The mixture was then analyzed with RP-UPLC (C18 reverse phase column, eluted with 20-
80% acetonitrile in water, 0.1% TFA). […] Enzyme digestion
products were confirmed by MALDI-ToF mass spectrometry.
Peptide cleavability by MMP-2
To assess the cleavability of iRGD-modified CPPs by MMP-2, the peptides were incubated
with recombinant MMP-2 (0.1 mg/ml, Calbiochem, Germany) in MQ water for 40 minutes at
37°C and analyzed with UPLC.

“Also recorded” adds a separate entry of the source.

Chain of active human recombinant MMP-2 enzyme (P08253 110-660): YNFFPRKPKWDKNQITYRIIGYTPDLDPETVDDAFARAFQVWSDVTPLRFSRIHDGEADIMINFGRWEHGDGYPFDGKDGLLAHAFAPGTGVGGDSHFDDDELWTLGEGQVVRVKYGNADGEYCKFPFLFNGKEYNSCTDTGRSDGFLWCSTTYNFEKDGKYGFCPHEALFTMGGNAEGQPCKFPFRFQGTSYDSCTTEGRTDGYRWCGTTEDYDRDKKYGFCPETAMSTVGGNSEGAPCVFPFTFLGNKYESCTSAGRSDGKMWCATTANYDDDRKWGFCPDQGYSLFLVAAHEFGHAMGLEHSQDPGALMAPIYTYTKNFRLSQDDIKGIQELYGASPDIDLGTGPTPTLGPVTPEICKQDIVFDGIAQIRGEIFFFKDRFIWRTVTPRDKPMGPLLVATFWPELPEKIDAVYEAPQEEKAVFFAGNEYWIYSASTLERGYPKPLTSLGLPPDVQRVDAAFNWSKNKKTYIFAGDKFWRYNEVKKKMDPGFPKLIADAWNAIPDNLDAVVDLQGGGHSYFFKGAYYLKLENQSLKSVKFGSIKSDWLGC

Turning to “C*RGDKGPDC*‐NH2 (disulfide) [iRGD, tumor‐homing peptide, αvβ3 integrin targeting ligand, reference compound]”, in data set [1] (iRGD coadministered (molar amount equal to that of PF14) with PF144 or PF145 nanoparticles, iv, CR4, 0.8 mg/kg plasmid, 24 h, Figure 1C), the “luciferase levels in tissues on coadministration of standalone iRGD with CPP/pLuc2 nanoparticles” value is on record as “high luciferase levels in spleen; also recorded: high reporter gene expression in the spleen”.

As for “Stearyl‐AGYLLGKLLOOLAAAALOOLL‐X‐PLGLAG‐PEG600‐C*RGDKGPDC*‐NH2 (disulfide) [PF144‐iRGD, iRGD‐functionalized PF144]”, in data set [1] (Figure 1C), the “tumor specificity of reporter gene induction (luciferase levels in tissues)” value was “decreased the tumor specificity; also recorded: reduction in tumor specificity”. The “transfection efficiency after incubation with MMP-2 enzyme (enzyme-dependent activation)” value (“transfection efficiency after incubation” below) in the data set with Neuro2a cells [2] is recorded as “fully restored to the level of PF14”.

Consider “Stearyl‐AGYLLGKLLOOLAAAALOOLL‐X‐PLGLAG‐PEG600‐NH2 [PF144]”, for which the “sensitivity of CPP/pDNA nanoparticles to serum treatment (transfection efficiency before and after FBS)” value with Neuro2a cells [3] was “highest stability to serum and heparin treatment out of all the PEGylated peptides”. The “tissue/tumor specificity of plasmid DNA delivery in vivo” value in the data set with tumors is on record as “efficient tumor specificity; also recorded: successful in mediating tumor‐specific gene delivery”. Further, the “resistance of pDNA in complexes to heparin displacement (relative PicoGreen fluorescence)” value in data set [4] was “significantly more resistant to heparin treatment than other PEGylated CPPs tested”.

With “Stearyl‐AGYLLGKLLOOLAAAALOOLL‐X‐PLGLAG‐PEG1000‐NH2 [PF145]”, the “sensitivity of CPP/pDNA nanoparticles to serum treatment (transfection efficiency before and after FBS)” value in the data set on Neuro2a cells [3] is reported as “lowest transfection efficiency after serum treatment”. Moreover, the “tissue/tumor specificity of plasmid DNA delivery in vivo” value in the data set with tumors is listed as “successful in mediating tumor‐specific gene delivery”.

As to “Stearyl‐AGYLLGKLLOOLAAAALOOLL‐X‐PLGLAG‐PEG1000‐C*RGDKGPDC*‐NH2 (disulfide) [PF145‐iRGD, iRGD‐functionalized PF145]”, the “reporter gene induction at different PEGylation rates” value in data set [1] (PF145-iRGD/pLuc2 CR4, 20 µg, PEGylation rates 40%, 50%, 70% (rest PF14), iv, 24 h, N=3 per group, Figure S2) is 50% being the most effective of the three. The “tumor specificity of reporter gene induction (luciferase levels in tissues)” value in data set [1] (Figure 1C) is on record as “preserved its tumor specificity; also recorded: minimal luciferase induction in healthy tissues”. Besides, the “effect on tumor growth, HT1080 model” value in the data set on sc HT1080 tumors is reported as “did not translate into efficient tumor treatment”. Besides, in the data set with Neuro2a cells [2], the “transfection efficiency after incubation” value is “fully restored to the level of PF14”. Further, in the data set on orthotopic 4T1 tumors, the “effect on tumor growth, 4T1 model” value is recorded as “performs worse than PF144”.

Regarding “Stearyl‐AGYLLGKLLOOLAAAALOOLL‐X‐LALGPG‐PEG1000‐C*RGDKGPDC*‐NH2 (disulfide) [PF148‐iRGD]”, in data set [5], the “cleavability of the MMP-2 sensitive linker by the MMP-2 enzyme” value is “resistant to MMP‐2 degradation”. Besides, the “tumor specificity of reporter gene induction (luciferase levels in tissues)” value in data set [1] (Figure 1C) is recorded as “unable to induce luciferase expression in any tissue”. For the same substance, the “effect on tumor growth, HT1080 model” value in the data set on sc HT1080 tumors is reported as “no effect on tumor size”. Further, in the data set on Neuro2a cells [2], the “transfection efficiency after incubation” value is recorded as “no enzyme‐dependent activation”. Besides, the “effect on tumor growth, 4T1 model” value with orthotopic 4T1 tumors is on record as “no effect on tumor size”.
